Assay results as given in US10654890B2, “Cyclic peptide derivative, method for preparing same and composition thereof” (priority 2014, dated 2020).

How the values were obtained:
[1] = test system: normal human dermal fibroblasts (NHDF); assay: Cell proliferation test, normal human dermal fibroblasts; format: cell-based
Method: To see whether or not the astrocyte proliferation accelerating activity of the cyclic peptide derivative is a specific proliferative activity that is limited only to an astrocyte or it is based on a common cell proliferative activity, investigations were made by using normal human dermal fibroblasts (NHDF), human liver cancer cells (HepG2), and human leukemia cells (K562).
Seeding of each cell on a 96 well plate was carried out by adding 100 μl of a cell suspension in which normal human dermal fibroblasts are prepared at 2.5×10^4 cells/ml or human liver cancer cells and human leukemia cells are prepared at 5×10^4 cells/ml. Since the cyclic peptide derivative is added after dissolving it in PBS (−), only PBS (−) was added as a control.

NGF gene = NGF gene expression in culture astrocyte (real time PCR); format: cell-based, mouse; settings: 25 μM; from 8 hours to 24 hours after the addition; p<0.05 vs before the addition; calibrated to GAPDH
Method: By adding the cyclic peptide derivative of 25 μM to an astrocyte of the secondary subculture, the influence on expression of the gene of NGF, GDNF, VFGF-A, BDNF, and VGF as a representative neurotrophic factor was determined over time.
Except that a cell suspension of an astrocyte of the secondary subculture was prepared to have cell concentration of 3×10^5 cells/ml and the time for exposing the astrocyte to the above 25 μM cyclic peptide derivative was set at 0, 1, 2, 4, 8, 12, and 24 hours, the astrocyte was cultured in the same order as above <6>. As a control group, LG-D-MEM (0% FBS) not added with any cyclic peptide derivative was used.
Each astrocyte which has been exposed to the cyclic peptide derivative during each time described above was collected, and then, by using RNeasy Mini Kit (QIAGEN), extraction and purification of total RNA were carried out. The extracted total RNA was quantified by using Nano Photometer (IMPLEN). For the reverse transcription reaction, cDNA was synthesized by reacting 500 ng of total RNA with PrimeScript RT Master Mix (TaKaRa) at 37° C. for 15 minutes using GeneAmp PCR System 9600 (PERKIN ELMER), and the reaction was terminated by heating for 5 seconds at 85° C. […]

[2] = test system: senescence-accelerated model mouse SAMP8; assay: Morris water maze test; format: in vivo; settings: SAMP8, oral 25 μg/kg/day; vs SAMP8; p<0.05
Description: As a mouse for an in vivo test of the cyclic peptide derivative, senescence-accelerated model mouse SAMP8 which is used as a cognitive disorder model animal of initial Alzheimer's disease accompanied with aging was selected, and as a control, SAMR1 mouse with normal aging was selected.
19-Week old male mice of SAMR1 and SAMP8 were purchased from Japan SLC, Inc., and divided into 5 groups, i.e., mouse group with normal aging (SAMR1), senescence-accelerated model mouse group (SAMP8), {P8+donepezil hydrochloride 1250 μg/kg/day} group as a positive control, and {P8+cyclic peptide derivative 2.5 μg/kg/day} group and {P8+cyclic peptide derivative 25 μg/kg/day} group as a test group. […] After 10 days of an acclimation period, all mice were provided with standard meal (MEQ, Oriental Yeast Company) and body weight of the animal was recorded everyday during the entire test period. […]
(3) {P8+donepezil hydrochloride 1250 μg/kg/day} group: As a positive control, donepezil hydrochloride (Sanyo Chemical Laboratories CO., LTD.) was dissolved in MQ and prepared to have a concentration of 1250 μg/kg (bodyweight), and then orally administered to a SAMP8 for 5 weeks by using a gastric sonde. The concentration was accurately calculated based on the bodyweight which has been measured every day. […]

CCC1(C)Oc2cc(ccc2O)C(O)C(NC)C(=O)NC(C(C)C)C(=O)NC1C(=O)NC(CCC(=O)O)C(=O)O (centres unmarked) [cyclic peptide derivative] was tested, and the “cytotoxicity for normal cells” value [1] was “low”, the cell proliferation rate ([1]; 25 μM) was roughly 80% and the “proliferation of NHDF cells compared to the group with no addition” value ([1]; 25 μM) was “inhibited in a significant sense”. The “expression of the gene of NGF” value (NGF gene) was “increased” and the “spatial learning ability (time in zone (%) in quadrant 1)” value [2] was “significantly recovered”.
